Reference: US20230106102A1, “METHOD OF PRODUCING TRICHODESMA KHASIANUM CLARKE LEAF EXTRACTS AND APPLICATION OF THE SAME” (BAI-CHUNG-REN Foodstuff.Co.Ltd, priority 2021, published 2023)
Marks after values point to notes of the source that are not given here.

Columns and labels:
Type in all cases: in vivo
[1] = Calorie intake, alcohol intake and body weight of mice fed alcohol liquid diet; details: for Body weight: RA group
Description: In the design of this study, male mice of C57BL/6J strain are eight weeks old and are pre-bred for two weeks before starting the experiment to allow the animals to adapt to the environment, and observe whether the animals are abnormal daily. Raising at a relative humidity of 60%, 23±1° C., 12-hour light cycle (8:00-20:00), unlimited feed and water for rodents. The establishment and experimental grouping of liver injury and fatigue model animals. The trichodesma khasianum […] extract powders explore the effect of alcohol liquid diet on fatty liver and liver damage in mice, male mice of the C57BL/6J strain of 8 weeks old, are given special diet for experimental animals (Laboratory Rodent Diet) during the 2 week adaptation period. After one week, the body weight reached 20g, and the group is tested and started to be fed with standard alcoholic liquid model feed (Lieber-DeCarli Regular Control (DYET#710027)) or ethanol feed (Ethanol Diet (DYET#710260)), food and water are not restricted. The test is carried out for six weeks. The test substance is given a fixed daily dose by tube feeding. The dosage conversion refers to the US Food and Drug Administration announcement (US FDA, 2005), based on a 60 kg adult, the recommended daily body weight per kg 12.3 times the intake is the dose for mice. The animal experiment is divided into five groups, and each group has 8 mice, so there are […] mice, including normal group (NOR group), alcohol group (ALD group), low dose of the trichodesma khasianum […] extract powder (TL group) and high dose group of the trichodesma khasianum […] extract powder (TH group), and rosmarinic acid group (RA group). The recommended daily intake of the trichodesma khasianum […] extract powders are 2 g per day. After the animal experiment dose is converted, the one-time dose is […], and the […]-time dose is 0.82 g/kg. After fasting for 12 hours, the experimental animals are sacrificed by carbon dioxide asphyxiation, and blood and liver tissues are collected. After the blood is centrifuged, the serum is collected for biochemical analysis. The surface of the tissue is cleaned with saline solution, dried with a paper towel and weighed, then the tissue of the second largest leaf of the liver is cut and placed in a tissue embedding basin soaked in 10% formalin for paraffin embedding and sectioning so as to have tissue staining analysis. Finally, all remained livers are cleaned internally with 0.9% saline and stored in a -80° C. refrigerator for later use. The aforementioned test items of liver function in serum are aspartate aminotransferase (AST), alanine aminotransferase (ALT) and alkaline phosphatase (ALP) which are tested by using biochemical automatic analyzer (Beckman-700, Fullerton, Calif., USA). The test items of a concentration of lipid in blood are total cholesterol (TC) and triglyceride (TG) in serum, wherein a concentration of the total cholesterol is analyzed by using commercially available biochemical reagents (BXC 0261, Fortress), and a concentration of the biochemical reagents (BXC 0271, Fortress) is analyzed by triglyceride. The test items of a concentration of liver lipid are total cholesterol and triglycerides, wherein a concentration of the total cholesterol of the liver lipid is analyzed by using commercially available biochemical reagents (BXC 0261, Fortress), and a concentration of the biochemical reagents (BXC 0271, Fortress) of the liver lipid is analyzed by triglyceride. A production of lipid peroxide malondialdehyde (MDA) is determined by way of thiobarbituric acid (thiobarbituric acid) color method, wherein the more the product of lipid peroxide malondialdehyde is, the higher the absorbance value produces. Therefore, when the sample is capable of reducing the absorbance value of the system, it means that an anti-oxidant effect is formed. […]

[2] = tested on: mice with alcohol-induced liver injury; experiment: Liver weight / body weight ratio (liver enlargement) in mice fed alcohol liquid diet; details: p<0.05
Description: (§1) In the design of this study, male mice of C57BL/6J strain are eight weeks old and are pre-bred for two weeks before starting the experiment to allow the animals to adapt to the environment, and observe whether the animals are abnormal daily. Raising at a relative humidity of 60%, 23±1° C., 12-hour light cycle (8:00-20:00), unlimited feed and water for rodents. The establishment and experimental grouping of liver injury and fatigue model animals. […] The test items of a concentration of lipid in blood are total cholesterol (TC) and triglyceride (TG) in serum, wherein a concentration of the total cholesterol is analyzed by using commercially available biochemical reagents (BXC 0261, Fortress), and a concentration of the biochemical reagents (BXC 0271, Fortress) is analyzed by triglyceride. The test items of a concentration of liver lipid are total cholesterol and triglycerides, wherein a concentration of the total cholesterol of the liver lipid is analyzed by using commercially available biochemical reagents (BXC 0261, Fortress), and a concentration of the biochemical reagents (BXC 0271, Fortress) of the liver lipid is analyzed by triglyceride. A production of lipid peroxide malondialdehyde (MDA) is determined by way of thiobarbituric acid (thiobarbituric acid) color method, wherein the more the product of lipid peroxide malondialdehyde is, the higher the absorbance value produces. […]

[3] = tested on: mice with alcohol-induced liver injury; experiment: Serum liver function index (AST, ALT) by biochemical automatic analyzer; details: FIG. 2, extract: TL and TH group, RA group, p<0.05 vs ALD
Description: as §1

[4] = tested on: Mice with Alcoholic Liver Injury; experiment: Serum total cholesterol and triglyceride
Description: (§2) In the design of this study, male mice of C57BL/6J strain are eight weeks old and are pre-bred for two weeks before starting the experiment to allow the animals to adapt to the environment, and observe whether the animals are abnormal daily. Raising at a relative humidity of 60%, 23±1° C., 12-hour light cycle (8:00-20:00), unlimited feed and water for rodents. The establishment and experimental grouping of liver injury and fatigue model animals. The trichodesma khasianum […] extract powders explore the effect of alcohol liquid diet on fatty liver and liver damage in mice, male mice of the C57BL/6J strain of 8 weeks old, are given special diet for experimental animals (Laboratory Rodent Diet) during the 2 week adaptation period. After one week, the body weight reached 20g, and the group is tested and started to be fed with standard alcoholic liquid model feed (Lieber-DeCarli Regular Control (DYET#710027)) or ethanol feed (Ethanol Diet (DYET#710260)), food and water are not restricted. The test is carried out for six weeks. The test substance is given a fixed daily dose by tube feeding. The dosage conversion refers to the US Food and Drug Administration announcement (US FDA, 2005), based on a 60 kg adult, the recommended daily body weight per kg 12.3 times the intake is the dose for mice. The animal experiment is divided into five groups, and each group has 8 mice, so there are […] mice, including normal group (NOR group), alcohol group (ALD group), low dose of the trichodesma khasianum […] extract powder (TL group) and high dose group of the trichodesma khasianum […] extract powder (TH group), and rosmarinic acid group (RA group). […] The test items of a concentration of lipid in blood are total cholesterol (TC) and triglyceride (TG) in serum, wherein a concentration of the total cholesterol is analyzed by using commercially available biochemical reagents (BXC 0261, Fortress), and a concentration of the biochemical reagents (BXC 0271, Fortress) is analyzed by triglyceride. The test items of a concentration of liver lipid are total cholesterol and triglycerides, wherein a concentration of the total cholesterol of the liver lipid is analyzed by using commercially available biochemical reagents (BXC 0261, Fortress), and a concentration of the biochemical reagents (BXC 0271, Fortress) of the liver lipid is analyzed by triglyceride. A production of lipid peroxide malondialdehyde (MDA) is determined by way of thiobarbituric acid (thiobarbituric acid) color method, wherein the more the product of lipid peroxide malondialdehyde is, the higher the absorbance value produces. Therefore, when the sample is capable of reducing the absorbance value of the system, it means that an anti-oxidant effect is formed. […]

[5] = tested on: Mice with Alcoholic Liver Injury; experiment: Liver total cholesterol and triglyceride; details: RA group
Description: as §2

[6] = tested on: Mice with Alcoholic Liver Injury; experiment: Liver lipid peroxidation (MDA, thiobarbituric acid color method); details: RA group
Description: as §1

[7] = tested on: mice with alcohol-induced liver injury; experiment: Liver pathological section, H&E stain; details: FIG. 3, extract: TL and TH group, RA group
Description: as §1

[8] = RA group, alcohol liquid diet six weeks
[9] = extract high dose (TH group) or RA group
[10] = extract: TL and TH group, p<0.05

## O=C(/C=C/c1ccc(O)c(O)c1)O[C@H](Cc1ccc(O)c(O)c1)C(=O)O [RA, rosmarinic acid]
[1]; 0 to 6 weeks, alcohol feed diet, p>0.05
  body weight compared with the alcohol group: no significant difference
[1]; Day 0
  Body weight: 22.3 ± 0.7^a g
[1]; Day 7
  Body weight: 21.7 ± 0.7^a g
[1]; Day 14
  Body weight: 20.6 ± 0.5^a g
[1]; Day 21
  Body weight: 23.3 ± 0.8^a g
[1]; Day 28
  Body weight: 22.3 ± 0.7^a g
[1]; Day 35
  Body weight: 21.6 ± 0.8^a g
[1]; Day 42
  Body weight: 24.6 ± 1.0^a g
[2]; FIG. 1
  ratio of liver weight/body weight compared with ALD group: significantly lower
[2]; extract: TL and TH group, RA group
  alcohol-induced liver enlargement in mice: significantly reduces
[3]
  serum alanine transaminase (ALT/GPT) activity induced by alcohol diet: significantly reduced
[3]; listed as rosmarinic acid
  serum alanine transaminase (ALT/GPT) activity induced by alcohol diet: significantly reduce
[4]; [8]
  Serum total cholesterol: 105.9 ± 9.97 ^ab mg/dL
  Serum triglyceride: 107.7 ± 23.5 ^b mg/dL
[4]; [9]
  serum total cholesterol raised by alcohol diet, compared with ALD group: significantly reduce
  serum triglyceride raised by alcohol diet, compared with ALD group: significantly reduce
[5]; alcohol liquid diet six weeks
  Liver total cholesterol: 6.3 ± 0.56 ^b mg/g
  Liver triglyceride: 8.4 ± 1.68 ^bc mg/g
[5]; [10]
  liver cholesterol concentration in mice: significantly reduce
  liver triglyceride concentration in mice: significantly reduce
[6]; extract: TH group, no significant difference (p>0.05)
  production of liver lipid peroxides induced by alcohol diet: tendency to reduce
[6]; liver, alcohol liquid diet six weeks
  MDA: 5.00 ± 0.90 ^ab mM/g
[7]
  liver pathological examination (H&E section): only a few fat vacuoles and macrophage infiltration around the central vein
[7]; listed as rosmarinic acid
  liver pathological examination (H&E section): improves the effects of alcoholic fatty liver and cell damage
